Experimental data: EP2970215B1, “PYRROLIDINE DERIVATIVES, PHARMACEUTICAL COMPOSITIONS CONTAINING THEM, AND THEIR USE IN THERAPY” (AbbVie Deutschland GmbH & Co. KG, priority 2013, dated 2014)
pKi: −log10 of the molar value.

Biological target: T1, human GlyT1c transporter (Homo sapiens, UniProt P48067)
T1 construct: expressed in transfected cells; host or cells: CHO cells (recombinant; line hGlyT1c_5_CHO is named for the uptake assay)
T1 sequence (P48067 1-706): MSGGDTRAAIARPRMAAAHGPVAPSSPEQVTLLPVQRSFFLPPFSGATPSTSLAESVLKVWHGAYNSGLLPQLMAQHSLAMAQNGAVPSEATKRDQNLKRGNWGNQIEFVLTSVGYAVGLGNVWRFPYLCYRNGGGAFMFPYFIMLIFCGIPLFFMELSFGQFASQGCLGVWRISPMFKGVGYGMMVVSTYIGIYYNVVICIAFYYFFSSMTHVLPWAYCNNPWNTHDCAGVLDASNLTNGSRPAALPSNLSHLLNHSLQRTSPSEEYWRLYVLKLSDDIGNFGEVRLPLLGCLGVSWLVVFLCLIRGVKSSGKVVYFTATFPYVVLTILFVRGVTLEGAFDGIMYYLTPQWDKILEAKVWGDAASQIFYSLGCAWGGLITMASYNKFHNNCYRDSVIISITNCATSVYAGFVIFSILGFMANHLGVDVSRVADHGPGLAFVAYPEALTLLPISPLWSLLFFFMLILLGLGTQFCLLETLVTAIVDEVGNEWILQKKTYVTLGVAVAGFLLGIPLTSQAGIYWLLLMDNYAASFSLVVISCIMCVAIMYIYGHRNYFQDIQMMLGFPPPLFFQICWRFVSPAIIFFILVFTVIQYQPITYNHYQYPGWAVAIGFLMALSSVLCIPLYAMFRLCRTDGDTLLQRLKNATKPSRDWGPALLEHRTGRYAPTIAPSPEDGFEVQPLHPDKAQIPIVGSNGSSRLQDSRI
Assay: Radioligand binding assay using recombinant CHO cell membranes expressing human GlyT1
Conditions: radioligand binding to human GlyT1c transporter-expressing membranes
Description: 2. Radioligand binding assays using recombinant CHO cell membranes expressing human GlyT1: […]

Compound	pKi
Cn1cnc(S(=O)(=O)N2C[C@@H](Nc3cc(C(F)(F)F)ncn3)[C@H](c3ncccc3F)C2)c1 (relative stereo) [Example 770, N-{Trans-4-(3-fluoropyridin-2-yl)-1-[(1-methyl-1H-imidazol-4-yl)sulfonyl]pyrrolidin-3-yl}-6-(trifluoromethyl)pyrimidin-4-amine]	≥ 6.00
Cn1cnc(S(=O)(=O)N2C[C@@H](Nc3ccc(F)c(Cl)c3)[C@H](c3ncccc3F)C2)c1 (relative stereo) [Example 771, Trans-N-(3-chloro-4-fluorophenyl)-4-(3-fluoropyridin-2-yl)-1-[(1-methyl-1H-imidazol-4-yl)sulfonyl]pyrrolidin-3-amine]	≥ 7.00
Cn1cnc(S(=O)(=O)N2C[C@@H](Nc3cc(Cl)ncn3)[C@H](c3ncccc3F)C2)c1 (relative stereo) [Example 772, 6-chloro-N-{trans-4-(3-fluoropyridin-2-yl)-1-[(1-methyl-1H-imidazol-4-yl)sulfonyl]pyrrolidin-3-yl}pyrimidin-4-amine]	≥ 5.00
Cc1cc(N[C@@H]2CN(S(=O)(=O)c3cn(C)cn3)C[C@H]2c2ncccc2F)ccc1F (relative stereo) [Example 775, Trans-N-(4-fluoro-3-methylphenyl)-4-(3-fluoropyridin-2-yl)-1-[(1-methyl-1H-imidazol-4-yl)sulfonyl]pyrrolidin-3-amine]	≥ 6.00
Cc1cccc(N[C@@H]2CN(S(=O)(=O)c3cn(C)cn3)C[C@H]2C2CCCOC2)c1 (relative stereo) [Example 781, trans-1-[(1-methyl-1H-imidazol-4-yl)sulfonyl]-N-(3-methylphenyl)-4-(tetrahydro-2H-pyran-3-yl)pyrrolidin-3-amine]	≥ 5.00
Cn1cnc(S(=O)(=O)N2C[C@@H](Nc3cccc(C(F)(F)F)c3)[C@H](C3CCCOC3)C2)c1 (relative stereo) [Example 782, trans-1-[(1-methyl-1H-imidazol-4-yl)sulfonyl]-4-(tetrahydro-2H-pyran-3-yl)-N-[3-(trifluoromethyl)phenyl]pyrrolidin-3-amine]	≥ 6.00
Cn1cnc(S(=O)(=O)N2C[C@@H](Nc3cccc(Cl)c3)[C@H](C3CCCOC3)C2)c1 (relative stereo) [Example 783, trans -N-(3-chlorophenyl)-1-[(1-methyl-1H-imidazol-4-yl)sulfonyl] -4-(tetrahydro-2H-pyran-3 - yl)pyrrolidin-3-amine]	≥ 6.00
Cn1cnc(S(=O)(=O)N2C[C@@H]([C@@H]3CCCOC3)[C@H](Nc3ccc(Cl)c(C(F)(F)F)c3)C2)c1 (relative stereo) [Example 792, Trans-N-[4-chloro-3-(trifluoromethyl)phenyl]-1-[(1-methyl-1H-imidazol-4-yl)sulfonyl]-4-[(3S)-tetrahydro-2H-pyran-3-yl]pyrrolidin-3-amine]	≥ 5.00
Cn1cnc(S(=O)(=O)N2C[C@@H]([C@@H]3CCCOC3)[C@H](Nc3ccc(Cl)c(OC(F)(F)F)c3)C2)c1 (relative stereo) [Example 793, Trans-N-[4-chloro-3-(trifluoromethoxy)phenyl]-1-[(1-methyl-1H-imidazol-4-yl)sulfonyl]-4-[(3S)-tetrahydro-2H-pyran-3-yl]pyrrolidin-3-amine]	≥ 5.00
Cn1cnc(S(=O)(=O)N2C[C@@H](Nc3cccc(C(F)(F)F)c3)[C@H](c3ncccc3F)C2)c1 (relative stereo) [Example 798, Trans-4-(3-fluoropyridin-2-yl)-1-[(1-methyl-1H-imidazol-4-yl)sulfonyl]-N-[3-(trifluoromethyl)phenyl]pyrrolidin-3-amine]	≥ 7.00
Cn1cnc(S(=O)(=O)N2C[C@@H](Nc3cccc(OC(F)(F)F)c3)[C@H](c3ncccc3F)C2)c1 (relative stereo) [Example 799, Trans-4-(3-fluoropyridin-2-yl)-1-[(1-methyl-1H-imidazol-4-yl)sulfonyl]-N-[3-(trifluoromethoxy)phenyl]pyrrolidin-3-amine]	≥ 7.00
Cn1cnc(S(=O)(=O)N2C[C@@H](Nc3cccc(OCC(F)(F)F)c3)[C@H](c3ncccc3F)C2)c1 (relative stereo) [Example 800, Trans-4-(3-fluoropyridin-2-yl)-1-[(1-methyl-1H-imidazol-4-yl)sulfonyl]-N-[3-(2,2,2-trifluoroethoxy)phenyl]pyrrolidin-3-amine]	≥ 8.00
Cn1cnc(S(=O)(=O)N2C[C@@H](Nc3cccc(F)c3)[C@H](c3ncccc3F)C2)c1 (relative stereo) [Example 805, Trans-N-(3-fluorophenyl)-4-(3-fluoropyridin-2-yl)-1-[(1-methyl-1H-imidazol-4-yl)sulfonyl]pyrrolidin-3-amine]	≥ 6.00
CCCCCCN[C@@H]1CN(S(=O)(=O)c2cn(C)nn2)C[C@H]1c1ncccc1F (relative stereo) [Example 811, Trans-4-(3-fluoropyridin-2-yl)-N-hexyl-1-[(1-methyl-1H-1,2,3-triazol-4-yl)sulfonyl]pyrrolidin-3-amine]	≥ 7.00

Same assay, conditions: radioligand binding, recombinant CHO cell membranes expressing human GlyT1c

Compound	pKi
Cn1cnc(S(=O)(=O)N2C[C@@H](OCCNCC(F)(F)F)[C@H](c3ccc(F)cc3)C2)c1 (relative stereo) [Example 814, 2,2,2-trifluoro-N-[2-({trans-4-(4-fluorophenyl)-1-[(1-methyl-1H-imidazol-4-yl)sulfonyl]pyrrolidin-3-yl}oxy)ethyl]ethanamine]	≥ 6.00
Cn1cnc(S(=O)(=O)N2C[C@@H](Nc3ccc(F)c(Cl)c3)[C@H](C3CCCCO3)C2)c1 (relative stereo) [Example 815, Trans-N-(3-chloro-4-fluorophenyl)-1-[(1-methyl-1H-imidazol-4-yl)sulfonyl]-4-(tetrahydro-2H-pyran-2-yl)pyrrolidin-3-amine]	≥ 7.00
Cn1cnc(S(=O)(=O)N2C[C@@H](Nc3cccc(OCC(F)(F)F)c3)[C@H](C3CCCCO3)C2)c1 (relative stereo) [Example 816, Trans-1-[(1-methyl-1H-imidazol-4-yl)sulfonyl]-4-(tetrahydro-2H-pyran-2-yl)-N-[3-(2,2,2-trifluoroethoxy)phenyl]pyrrolidin-3-amine]	≥ 8.00
Cn1cc(S(=O)(=O)N2C[C@@H](NCc3ccc(C(F)(F)F)cc3Cl)[C@H](c3ncccc3F)C2)nn1 (relative stereo) [Example 818, Trans-N-[2-chloro-4-(trifluoromethyl)benzyl]-4-(3-fluoropyridin-2-yl)-1-[(1-methyl-1H-1,2,3-triazol-4-yl)sulfonyl]pyrrolidin-3-amine]	≥ 8.00
Cn1cnc(S(=O)(=O)N2C[C@@H](Nc3cccc(OCC(F)(F)F)c3)[C@H](C3CCCO3)C2)c1 (relative stereo) [Example 819, Trans-1-[(1-methyl-1H-imidazol-4-yl)sulfonyl]-4-(tetrahydrofuran-2-yl)-N-[3-(2,2,2-trifluoroethoxy)phenyl]pyrrolidin-3-amine]	≥ 7.00
Cn1cnc(S(=O)(=O)N2C[C@@H](NCc3ccc(C(F)(F)F)cc3Cl)[C@H](C3CCCO3)C2)c1 (relative stereo) [Example 822, Trans-N-[2-chloro-4-(trifluoromethyl)benzyl]-1-[(1-methyl-1H-imidazol-4-yl)sulfonyl]-4-(tetrahydrofuran-2-yl)pyrrolidin-3-amine]	≥ 6.00
Cn1cnc(S(=O)(=O)N2C[C@@H](Nc3ccc(F)c(Cl)c3)[C@H](C3CCCO3)C2)c1 (relative stereo) [Example 824, Trans-N-(3-chloro-4-fluorophenyl)-1-[(1-methyl-1H-imidazol-4-yl)sulfonyl]-4-(tetrahydrofuran-2-yl)pyrrolidin-3-amine]	≥ 6.00
Cn1cnc(S(=O)(=O)N2C[C@@H](Nc3cccc(C(F)(F)F)c3)[C@H](C3CCOC3)C2)c1 (relative stereo) [Example 827, trans-1-[(1-methyl-1H-imidazol-4-yl)sulfonyl]-4-(tetrahydrofuran-3-yl)-N-[3 - (trifluoromethyl)phenyl]pyrrolidin-3-amine]	≥ 6.00
Cc1cccc(N[C@@H]2CN(S(=O)(=O)c3cn(C)cn3)C[C@H]2C2CCOC2)c1 (relative stereo) [Example 828, trans-1-[(1-methyl-1H-imidazol-4-yl)sulfonyl]-N-(3-methylphenyl)-4-(tetrahydrofuran-3-yl)pyrrolidin-3-amine]	≥ 5.00
Cn1cnc(S(=O)(=O)N2C[C@@H](Nc3cccc(Cl)c3)[C@H](C3CCOC3)C2)c1 (relative stereo) [Example 829, trans-N-(3-chlorophenyl)-1-[(1-methyl-1H-imidazol-4-yl)sulfonyl]-4-(tetrahydrofuran-3-yl)pyrrolidin-3-amine]	≥ 5.00
Cn1cnc(S(=O)(=O)N2C[C@@H](Nc3ccc(F)c(Cl)c3)[C@H](C3CCOC3)C2)c1 (relative stereo) [Example 830, trans -N-(3-chloro-4-fluorophenyl)-1-[(1-methyl-1H-imidazol-4-yl)sulfonyl] -4-(tetrahydrofuran-3 - yl)pyrrolidin-3-amine]	≥ 5.00
